Test results as given in patent publication US7456161B2 (Epigenesis Pharmaceuticals, LLC, priority 2001, dated 2008).
“Also recorded” adds a separate entry of the source.

Assays:
Intracellular Adenosine = experiment: In vivo effect on adenosine levels in various rat tissues (HPLC, spectrofluorometric detection)
Method: Folinic acid (50 mg/kg) was administered intraperitoneally once daily for fourteen days. […] Hearts were removed from animals and flash frozen in liquid nitrogen with 10 seconds of death. Liver and lungs were removed en bloc and flash frozen within 30 seconds of death. Brain tissue was subsequently dissected.

HT-29 SF cells [1] = experiment: DHEA effect on cell growth (cell number, Coulter counter) and its reversal by supplements; type: cell-based, human; conditions: 12.5-200 μM, 24-72 hours
HT-29 SF cells [2] = experiment: Cell cycle distribution by flow cytometry (propidium iodide) and reversal of the DHEA effect; type: cell-based, human; conditions: for cell morphology: HT-29 SF cells exposed to DHEA, data not shown

C[C@]12CCC(=O)C=C1CC[C@@H]1[C@@H]2CC[C@@]2(C)[C@H]1CC[C@]2(C)O [Methyltestosterone, methyltestosterone]
effect on tissue adenosine levels (in words) (Intracellular Adenosine; rats, daily for two weeks): multi-organ depletion of adenosine

Nc1nc(=O)c2c([nH]1)NCC(CNc1ccc(C(=O)N[C@@H](CCC(=O)O)C(=O)O)cc1)N2C=O (mixture of isomers) [Folinic Acid (F.A.), Folinic acid]
effect on tissue adenosine levels (in words) (Intracellular Adenosine; rats, daily for two weeks, listed as Folinic acid): increase in adenosine levels for all organs studied
effect on tissue adenosine levels (in words) (Intracellular Adenosine; rats, daily for two weeks, listed as folinic acid): completely abrogated steroid-mediated adenosine depletion

C[C@]12CC[C@H](O)CC1=CC[C@@H]1[C@@H]2CC[C@]2(C)C(=O)CC[C@@H]12 [DHEA, (3β)-3-hydroxyandrost-5-en-17-one]
effect on tissue adenosine levels (in words) (Intracellular Adenosine; rat, in vivo): multi-organ depletion of adenosine
inhibition of growth of HT-29 SF cells (in words) (HT-29 SF cells [1]): time- and dose-dependent inhibition of growth
cell cycle distribution (HT-29 SF cells [2]; 200 μM DHEA, after 24 hours): increase in the percentage of cells in G1 and a decreased proportion of cells in S phase
effect on cell cycle (G1, S phase) with time of exposure (in words) (HT-29 SF cells [2]; 25-200 μM DHEA, 24-72 hours): G1 block in HT-29 SF cells in a time-and dose-dependent manner; also recorded: progressively reduced the proportion of cells in S phase
cell morphology (HT-29 SF cells [2]): acquiring a rounded shape

C[C@@](O)(CCO)CC(=O)O [MVA, mevalonic acid, reference compound]
prevention of DHEA-induced S phase depletion (HT-29 SF cells [2]; 25 FM DHEA, 72 hours): not after 72 hours
cell morphology (HT-29 SF cells [2]): prevented only by the addition of MVA
